Consider three compounds from patent US7001611B2, “Compositions normalizing circadian rhythm” (Suntory Limited, priority 2000, dated 2006).

“Also recorded” adds a separate entry of the source.

In experiment [1] the test system is Wistar rats. The experiment can be described thus: Circadian rhythm measuring method: amount of daily (spontaneous) movements of rats counted with an infrared sensor under a 12-hour light / 12-hour dark cycle. The experiment is classed as in vivo, rat. Particulars: for ratio of activity in the light period to the total amount of movements (averages): Example 2, vs control group, astaxanthin diet, melatonin water (about 1 mg/day) or both, FIG. 5; for enhancive effect on the circadian rhythm normalizing action of melatonin: Example 3. From the text:
To search for a substance having the action of normalizing the circadian rhythm, the inventors of the present invention conducted studies on various substances with the use of a circadian rhythm measuring method, with the amount of spontaneous movement of rats as an indicator, in an environment controlled to have a 12-hour light period and a 12-hour dark period. As a result, the inventors have clarified that astaxanthin, which is one of carotenoids, and/or its ester has a circadian rhythm normalizing action. […] These findings led them to accomplish the present invention. The influence of astaxanthin on daily movements was investigated in rats. Rats have the habit of resting (sleeping) mainly in the light period, and acting in the dark period. The circadian rhythm of rats was investigated by measuring the amount of daily movements continuously, and examining changes over time in the amounts of movements in the light period and the dark period. Four-week-old male Wistar rats (purchased from Nippon […]) were preliminarily reared for one week, and subjected to experiments at the age of 5 weeks. The rats were randomly divided into two groups (5 to 6 rats/group), and one of the groups was used as a control diet (low tocopherol) group, while the other group was used as an astaxanthin diet group, each group receiving the designated diet for 4 weeks. The animals were reared in animal cages kept at room temperature of 23.5±1° C. and a humidity of 55±5%, and the feed and water were provided ad libitum. Astaxanthin used was astaxanthin extracted from […] purified (an oil containing 15% of astaxanthin as a free compound; a product of Itano Refrigerating Co.). The rats were individually reared in a box equipped with an infrared sensor, and the amount of movements was counted with the infrared sensor. That is, each time the animal passed the infrared sensor, the passage was taken as one count. The counts taken were accumulated, and expressed as the amount of movements (counts). Statistical treatment was performed using ANOVA and student t-test. A period of 1 week after start of rearing with the experimental diet was set as a tuning period in which the animal was tuned to a 12-hour dark period and a 12-hour light period. Then, from the 2nd week, the amount of daily movements was continuously measured for 3 weeks. The total amount of movements, and the ratio of movements in the light period to the total amount of movements (i.e., the amount of movements in the light period/the total amount of movements×100 (%)) were calculated every day. […] The averages of the ratio (%) of movements in the light period were compared in both groups (FIG. 3). […] Four-week-old male Wistar rats (purchased from Nippon […]) were preliminarily reared for one week, and subjected to experiments at the age of 5 weeks. The rats were randomly divided into two groups (10 to 11 rats/group), and the two groups were given a control diet (low tocopherol diet) and an astaxanthin diet (Table 1), respectively. Each group was further divided into two groups (5 to 6 rats/group), which received distilled water and melatonin water, respectively, for 4 weeks. The animals were reared in animal cages kept at room temperature of 23.5±1° C. and a humidity of 55±5%, and the feed and water were provided ad libitum. Melatonin was dissolved in water at a concentration of 0.5 mg/100 ml, and the solution was given ad lib, as drinking water. The intake of melatonin, calculated from the amount of water taken by rats, was about 1 mg/day. After start of rearing with the experimental diet, a tuning period of 1 week was provided. Then, the amount of movements of rats was measured as in Example 1 for 3 weeks to look into changes in the circadian rhythm. No differences were noted among the averages of the total amount of movements in the respective groups (FIG. 4). […]

Experiment [2] deals with lipid peroxides in the brain. Particulars: dose 1/100 the dose of α-tocopherol; Nishigaki et al. 1994; cited from earlier work.
The conditions of experiment [3]: Yamashita 1992; cited from earlier work.
Setting [4] is: Example 4, tocopherol-deficient basic feed, FIG. 9.

Regarding `COc1ccc2[nH]cc(CCNC(C)=O)c2c1` [melatonin, reference compound], in experiment [1], the “ratio of activity in the light period to the total amount of movements (averages)” value is “tendency toward a decrease in the ratio of activity in the light period”.

Take `Cc1c(C)c2c(c(C)c1O)CC[C@@](C)(CCC[C@H](C)CCC[C@H](C)CCCC(C)C)O2` [α-tocopherol, reference compound]: the “enhancive effect on the circadian rhythm normalizing action of melatonin” value in experiment [1] (0.001% tocopherol diet with melatonin water, FIG. 6) is reported as “no effect of enhancing the circadian rhythm normalizing action of melatonin”; in experiment [1] (0.005% tocopherol diet with melatonin water, FIG. 7), “no effect of enhancing the circadian rhythm normalizing action of melatonin”; in experiment [1] (0.005% tocopherol diet with melatonin water, FIG. 7, listed as tocopherol) it was “slight enhancive effect”.

Take `CC1=C(/C=C/C(C)=C/C=C/C(C)=C/C=C/C=C(C)/C=C/C=C(C)/C=C/C2=C(C)C(=O)[C@@H](O)CC2(C)C)C(C)(C)C[C@H](O)C1=O` [Astaxanthin, astaxanthin]: the “increases in lipid peroxides in the brain caused by irradiation with 60Co” value in experiment [2] is recorded as “can suppress increases in lipid peroxides in the brain”. In addition, the “antioxidant action compared with α-tocopherol” value in experiment [3] is reported as “more potent than that of α-tocopherol”. In experiment [1] (Example 1, astaxanthin diet (0.3 g/kg of oil containing 15% astaxanthin) vs control low tocopherol diet, 3 weeks, FIG. 1), the “total amount of movements (day-to-day changes)” value was “did not affect the total amount of movements”. Also, in experiment [1] (Example 1, astaxanthin diet group vs control, FIG. 3), the “average of the ratio (%) of movements in the light period” value was “significant decrease in the ratio of movements in the light period”. Further, the “ratio of movements in the light period to the total amount of movements (day-to-day changes)” value in experiment [1] (Example 1, astaxanthin diet vs control low tocopherol diet, 3 weeks, FIG. 2) is “lowered the ratio of movements in the light period”. The “ratio of activity in the light period to the total amount of movements (averages)” value in experiment [1] is given as “tendency toward a decrease in the ratio of activity in the light period”. Moreover, in experiment [1] (0.0045% astaxanthin diet with melatonin water, FIG. 8), the “enhancive effect on the circadian rhythm normalizing action of melatonin” value is recorded as “enhance the circadian rhythm normalizing action of melatonin significantly; also recorded: more potent effect of enhancing the circadian rhythm normalizing action of melatonin than does α-tocopherol”. Also, the “total amount of movements” value in experiment [1] (Example 4, maximum dose of 1.5 g/kg diet, tocopherol-deficient basic feed, FIG. 10) is listed as “tended to increase”. For the same compound, in experiment [1] (setting [4]), the “doses at which the decrease of the ratio of activity in the light period was significant” value is ≥ 0.3 g/kg diet and the “minimum dose at which the ratio of activity in the light period decreased” value is recorded as 0.15 g/kg diet. Further, the “ratio of activity in the light period to the total amount of movements (dose dependency)” value in experiment [1] (Example 4, tocopherol-deficient basic feed, astaxanthin diets 0.15, 0.3, 0.6, 1.5 g/kg, FIG. 9) is “decreased in an astaxanthin concentration-dependent manner”.
